Data published in patent US20230077723A1, “N-SUBSTITUTED-3,4-(FUSED 5-RING)-5-PHENYL-PYRROLIDINE-2-ONE COMPOUNDS AS INHIBITORS OF ISOQC AND/OR QC ENZYME” (Scenic Immunology B.V., priority 2019, published 2023).

Key:
[1] = tested on: pyroglutamylated CD47 (pE-CD47) in KBM7 cells; assay: Assay 6 - cell-based potency assay (pE-CD47 CC2C6 staining vs total CD47); parameters: species or system human; conditions: Homo sapiens, KBM-7, 72 h, CC2C6 signal, read-out: Cell Pot. Assay No. 6
Experimental: Cells were spun for 4 minutes at 1500 rpm and washed once with PBS/0.5% BSA. Cells were spun down again and the supernatant was removed and incubated in 100 uL antibody staining solution (PBS/0.5% BSA/0.1 μg/mL DAPI (4′,6-diamidino-2-phenylindole, ThermoFisher Scientific) and a mixture of 1:500 FITC-conjugated anti-human CD47 clone 2D3, which recognizes total CD47 irrespective of its pyroglutamylation state, and 1:500 Alexa647-conjugated anti-human CD47 clone CC2C6, which specifically detects pyroglutamylated CD47) for 2 hours at 4° C. Next, the cells were spun down and washed twice with 2×150 μL PBS/0.5% BSA to remove unbound antibody. Cells were again spun down and taken up in 300 μL FACS buffer before analysis on a Celesta FACS machine (BD Biosciences).
KBM7 cells (Kotecki et al., 1999) were infected with lentivirus produced by transfecting pSCNC-LentiCRISPR-QPCTL or pSCNC-LentiCRISPR-CD47 into HEK-293T cells according to standard protocols. After 24 hours incubation, cells were selected with puromycin (Invivogen, 1 μg/mL) for 48 hours. Cells were stained for total CD47 and pE-CD47 and QPCTL k.o. cells were sorted out as negative for pE-CD47, and CD47 k.o. cells as negative for total CD47, using a FACSAria III and FACS Diva software (BD Biosciences).
In order to test compounds for their effect on pyroglutamylation in live cells, 25000 KBM7 cells per well were seeded in a 96-well U-bottom plate in 150 μl IMDM/10% FCS/1% Pen/Strep medium and a 10-point 2-fold dilution range of test compounds. After 72 hours incubation at 37° C., 5% CO2, cells were stained for total CD47 and pE-CD47 and analyzed on a BD Celesta using FACS Diva software (BD Biosciences). Cells gated for DAPI negativity were recorded and the median fluorescence intensity (MFI) of each sample was transformed to linearly scale between the MFI's of wildtype and CD47 knockout cells (in case of the 2D3 antibody) and the wildtype and QPCTL knockout cells (in case of the CC2C6 antibody). IC50's were calculated by 3 parameter logistic regression of the CC2C6 signal vs. compound concentration, where the top of the sigmoidal curve was fixed at 1, using R and the drc package (http://www.r-project.org, https://cran.r-project.org/web/packages/drc/index.html).

[2] = target: T1, human isoQC (S53-L382) (Homo sapiens, UniProt Q9NXS2); assay: Assay 2 - isoQC potency, mass spectrometry-based enzymatic potency assay; type: biochemical; conditions: mass spectrometry read-out, 7.5 nM isoQC, 10 μM H-Gln-AMC; read-out: isoQc Pot. Assay No. 2
T1 construct: enzymatically active region of human isoQC (S53-L382; see, e.g., Huang et al., 2011); GST-Enterokinase site (N, cleaved yes); made in house; host or cells: E. coli
Experimental: (§1) The Golgi luminal, enzymatically active region of human isoQC (S53-L382; see, e.g., Huang et al., 2011) was obtained by expression in E. coli of an N-terminally GST-Enterokinase and C-terminally 6×His tagged construct in the pET41(+) vector and subsequent purification using talon beads and GST beads, enterokinase digestion and further purification with a final formulation in 25 mM Tris pH 8.0/150 mM NaCl/1 mM TCEP. Absence of pyroglutamylating activity in an enzymatic dead variant that was cloned, expressed, and purified in parallel ruled out that the purification strategy isolates any endogenously present pyroglutamylating activity.
(§2) EC50's of test compounds were determined by incubating 11-point two-fold dilutions of test compound in 20 μL volumes in the presence of 7.5 nM isoQC and 10 μM H-Gln-AMC using 50 mM Tris-HCl pH 8.0 as assay buffer for 2 hours at room temperature before stopping the reaction by the addition of 2 volumes of methanol. Both the substrate and the product of this reaction were read out using an Agilent RapidFire microfluidic solid phase sample extraction system coupled to an AB Sciex API 4000 triple quadrupole mass spectrometer, in negative ion mode, at m/z of 301.9 and 284.9 respectively. The actual readout was defined as P/(S+P), where P is the product signal area and S the substrate signal area. EC50's were calculated by four parameter sigmoidal model fitting.

[3] = target: T1, human isoQC (S53-L382); assay: Assay 1 - isoQC inhibition, fluorescent enzymatic assay (single concentration); type: biochemical; conditions: isoQC inhibition at 250 nM test compound; read-out: isoQc Inh. Assay No. 1
Experimental: Initially, isoQC inhibitory activity was measured at a single concentration in a fluorescent-based assay (Assay 1 below). In order to establish the inhibitory activity more quantitatively, IC50 values were obtained using a mass spectrometry-based assay where pyroglutamylation by either isoQC or QC was measured (Assays 2 and 4, respectively, below). Alternatively, IC50 values for isoQC or QC were obtained using a fluorescence-based assay (Assays 3 and 5 respectively, below).
as §1
Pyroglutamylation was measured by conversion of glutamine-4-amino-7-methylcoumarine (H-Gln-AMC, Bachem) to pyroglutamyl-AMC, which is subsequently a specific substrate for pyroglutamylaminopeptidase (pGAPase, Qiagen), releasing free AMC which can be fluorescently detected. For a typical inhibition assay, 15 μL 20 μM h-Gln-AMC (diluted from a 40 mM stock dissolved in 25 mM HEPES using 50 mM Tris-HCl pH 8.0) was pipetted into a 96-well plate on ice. Next, 7.5 μL 1 μM test compound (diluted from a 10 mM stock dissolved in DMSO using 50 mM Tris-HCl) was added. Finally, 7.5 μL, 3 ng/μL recombinant isoQC enzyme was added and the reaction mixture was incubated for 1 hour at 37° C. A 5 minute incubation at 98° C. was then performed to denature the isoQC enzyme and stop the reaction.
To detect the amount of pyroglutamyl-AMC formed, a 96-well plate was prepared with 25 μL 0.125 U/mL pGAPase enzyme diluted in 50 mM Tris-HCl pH 8.0 containing 10 mM dithiothreitol (DTT). 25 μL of the pyroglutamylation reaction mixture was transferred into the plate containing the pGAPase solutions while on ice. Once done, the plate was moved over to a Spectramax ID3 fluorescent plate-reader to monitor and record the maximum fluorescence at 380 nm excitation/450 nm emission over a period of 20 minutes while keeping the temperature at 37° C.
DMSO concentrations during the assay never exceeded 1% and activities were compared to controls containing only the same amount of DMSO and no test compound. […] Test compounds were reported as active when <40% of background corrected signal was measured as compared to DMSO controls.

[4] = target: T2, recombinant human QC (Homo sapiens, UniProt Q16769); assay: Assay 4 - QC potency, mass spectrometry-based enzymatic potency assay; type: biochemical; conditions: mass spectrometry read-out; read-out: QC Pot. Assay No. 4
T2 construct: His6 (N); purchased R&D Systems
Experimental: as §2
EC50's of test compounds were determined in the same way as described in Assay 2 above, except that N-terminally His6-tagged recombinant human QC (R&D Systems) was used instead of isoQC.

T2 sequence (Q16769 29-361): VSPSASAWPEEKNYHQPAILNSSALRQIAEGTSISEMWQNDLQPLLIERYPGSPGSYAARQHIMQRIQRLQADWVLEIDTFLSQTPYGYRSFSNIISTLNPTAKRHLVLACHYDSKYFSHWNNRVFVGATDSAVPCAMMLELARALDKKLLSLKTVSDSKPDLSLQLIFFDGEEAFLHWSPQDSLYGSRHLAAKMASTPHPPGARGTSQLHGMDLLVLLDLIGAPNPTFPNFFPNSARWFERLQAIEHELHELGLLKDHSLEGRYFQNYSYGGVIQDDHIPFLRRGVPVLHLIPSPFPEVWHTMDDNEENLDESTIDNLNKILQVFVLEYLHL
T1 sequence (Q9NXS2 53-382): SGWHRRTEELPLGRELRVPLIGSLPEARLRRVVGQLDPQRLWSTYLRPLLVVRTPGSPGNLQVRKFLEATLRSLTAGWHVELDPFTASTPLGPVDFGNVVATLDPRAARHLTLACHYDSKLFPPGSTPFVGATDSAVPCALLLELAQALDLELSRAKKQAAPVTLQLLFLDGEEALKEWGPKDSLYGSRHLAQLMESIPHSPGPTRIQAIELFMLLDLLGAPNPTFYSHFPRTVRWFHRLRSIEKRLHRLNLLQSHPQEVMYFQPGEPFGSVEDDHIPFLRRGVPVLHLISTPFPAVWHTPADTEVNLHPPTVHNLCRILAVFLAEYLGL

Row | SMILES | IC50 [1] [nM] | IC50 [2] [nM] | inhibition at 0.25 µM [3] [%] | IC50 [4] [nM]
1 | CCCOc1ccc(C2c3c(nn(C)c3C)C(=O)N2c2ccc3[nH]cnc3c2)c(C)c1 (centres unmarked) [FRPPO-003] | < 1000 | 25 to 100 | > 40 | 100 to 5000
2 | CCCOc1ccc(C2c3c(nn(C)c3C)C(=O)N2c2ccc3[nH]cnc3c2)c(Cl)c1 (centres unmarked) [FRPPO-004] | < 1000 | < 25 | > 40 | 25 to 100
3 | CCCOc1ccc(C2c3c(nn(C)c3C3CC3)C(=O)N2c2ccc3[nH]cnc3c2)cc1 (centres unmarked) [FRPPO-006] | < 1000 | 25 to 100 | > 40 | 100 to 5000
4 | CCCOc1ccc(C2c3c(nn(C)c3CC)C(=O)N2c2ccc3[nH]cnc3c2)cc1 (centres unmarked) [FRPPO-007] | < 1000 | 25 to 100 | > 40 | 25 to 100
5 | CCCOc1ccc(C2c3c(nn(C)c3C)C(=O)N2c2ccn3ccnc3c2)cc1 (centres unmarked) [FRPPO-009] | 1000 to 5000 | 25 to 100 | > 40 | 100 to 5000
6 | Cc1c2c(nn1C)C(=O)N(c1ccc3[nH]cnc3c1)C2c1ccc(N2CCC(C)(C)C2=O)cc1 (centres unmarked) [FRPPO-010] | 1000 to 5000 | 25 to 100 | > 40 | 25 to 100
7 | Cc1c2c(nn1C)C(=O)N(c1ccc3[nH]cnc3c1)C2c1ccc(N2CCCCCC2=O)cc1 (centres unmarked) [FRPPO-011] | ≥ 50000 | 25 to 100 | > 40 | 100 to 5000
8 | Cc1c2c(nn1C)C(=O)N(c1ccc3[nH]cnc3c1)C2c1cccc(F)c1F (centres unmarked) [FRPPO-012] | < 1000 | < 25 | > 40 | 25 to 100
9 | Cc1c2c(nn1C)C(=O)N(c1ccc3[nH]cnc3c1)C2c1cc(F)cc(F)c1F (centres unmarked) [FRPPO-013] | 1000 to 5000 | 25 to 100 | > 40 | 25 to 100
10 | Cc1c2c(nn1C)C(=O)N(c1ccc3[nH]cnc3c1)C2c1ccc(-c2ccccn2)cc1 (centres unmarked) [FRPPO-014] | 1000 to 5000 | < 25 | > 40 | 25 to 100
11 | Cc1c2c(nn1C)C(=O)N(c1ccc3[nH]cnc3c1)C2c1ccc(N2CCCC2=O)cc1 (centres unmarked) [FRPPO-016] | 5000 to 50000 | < 25 | > 40 | 25 to 100
12 | Cc1c2c(nn1C)C(=O)N(c1ccc3[nH]cnc3c1)C2c1ccc(N2CCCCC2=O)cc1 (centres unmarked) [FRPPO-017] | ≥ 50000 | 25 to 100 | > 40 | 25 to 100
13 | COc1ccc(C2c3c(nn(C)c3C)C(=O)N2c2ccc3[nH]cnc3c2)cc1O (centres unmarked) [FRPPO-018] | 5000 to 50000 | < 25 | > 40 | < 25
14 | Cc1c2c(nn1C)C(=O)N(c1ccc3[nH]cnc3c1)C2c1ccc(OCC(C)(F)F)c(F)c1F (centres unmarked) [FRPPO-019] | < 1000 | 25 to 100 | > 40 | < 25
15 | Cc1c2c(nn1C)C(=O)N(c1ccc3[nH]cnc3c1)C2c1ccc2nsnc2c1 (centres unmarked) [FRPPO-020] | 1000 to 5000 | < 25 | > 40 | 25 to 100
16 | CCCOc1ccc(C2c3c(C)nn(C(C)C)c3C(=O)N2c2ccc3[nH]cnc3c2)cc1 (centres unmarked) [FRPPO-021] | 5000 to 50000 | – | ≤ 40 | –
17 | CCCOc1ccc(C2c3c(C)nn(C4CCC4)c3C(=O)N2c2ccc3[nH]cnc3c2)cc1 (centres unmarked) [FRPPO-022] | 1000 to 5000 | – | ≤ 40 | –
18 | CCCOc1ccc(C2c3c(C)nn(CC(F)(F)F)c3C(=O)N2c2ccc3[nH]cnc3c2)cc1 (centres unmarked) [FRPPO-023] | 5000 to 50000 | – | ≤ 40 | –
19 | Cc1c2c(nn1C)C(=O)N(c1ccc3[nH]cnc3c1)C2c1ccc(Oc2cnn(C)c2)cc1 (centres unmarked) [FRPPO-025] | 5000 to 50000 | < 25 | > 40 | 25 to 100
20 | Cc1c2c(nn1C)C(=O)N(c1ccc3[nH]cnc3c1)C2c1ccc(N2CCS(=O)(=O)CC2)cc1 (centres unmarked) [FRPPO-027] | 1000 to 5000 | < 25 | > 40 | < 25
21 | CCCOc1ccc(C2c3c(nn(C4CC4)c3C)C(=O)N2c2ccc3[nH]cnc3c2)cc1 (centres unmarked) [FRPPO-036] | < 1000 | – | > 40 | –
22 | CCCOc1ccc(C2c3c(nn(CC(F)(F)F)c3C)C(=O)N2c2ccc3[nH]cnc3c2)cc1 (centres unmarked) [FRPPO-037] | 1000 to 5000 | – | > 40 | –
23 | CCCOc1ccc(C2c3c(nn(CC(C)(C)F)c3C)C(=O)N2c2ccc3[nH]cnc3c2)cc1 (centres unmarked) [FRPPO-038] | 1000 to 5000 | – | > 40 | –
